These results are taken from publication PMC6199744, “Development of Chemical Proteomics for the Folateome and Analysis of the Kinetoplastid Folateome” (ACS Infectious Diseases, 2018).

Type in all cases: binding
Assay [1] concerns the target T1, HeLa cell extract proteins (Homo sapiens, UniProt Q13501).
T1 construct: endogenous in cells; host or cells: HeLa cell extract
The conditions noted are these: HeLa; protein SQSTM1.

Assay [2] deals with T2, HeLa cell extract proteins (Homo sapiens, UniProt Q5BJD5).
T2 construct: endogenous in cells; host or cells: HeLa cell extract
T2 sequence (Q5BJD5 1-291): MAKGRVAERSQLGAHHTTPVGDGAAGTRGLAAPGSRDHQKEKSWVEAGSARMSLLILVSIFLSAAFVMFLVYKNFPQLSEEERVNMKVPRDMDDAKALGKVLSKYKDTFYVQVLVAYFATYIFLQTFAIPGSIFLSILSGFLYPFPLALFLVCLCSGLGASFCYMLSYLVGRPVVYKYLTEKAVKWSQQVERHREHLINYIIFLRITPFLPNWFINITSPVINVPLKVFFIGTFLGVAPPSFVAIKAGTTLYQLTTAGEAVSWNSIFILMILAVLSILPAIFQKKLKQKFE
Conditions: captured protein TMEM41B; HeLa.

Assay [3] deals with T3, HeLa cell extract proteins (Homo sapiens, UniProt A0FGR8).
T3 construct: endogenous in cells; host or cells: HeLa cell extract
T3 sequence (A0FGR8 1-921): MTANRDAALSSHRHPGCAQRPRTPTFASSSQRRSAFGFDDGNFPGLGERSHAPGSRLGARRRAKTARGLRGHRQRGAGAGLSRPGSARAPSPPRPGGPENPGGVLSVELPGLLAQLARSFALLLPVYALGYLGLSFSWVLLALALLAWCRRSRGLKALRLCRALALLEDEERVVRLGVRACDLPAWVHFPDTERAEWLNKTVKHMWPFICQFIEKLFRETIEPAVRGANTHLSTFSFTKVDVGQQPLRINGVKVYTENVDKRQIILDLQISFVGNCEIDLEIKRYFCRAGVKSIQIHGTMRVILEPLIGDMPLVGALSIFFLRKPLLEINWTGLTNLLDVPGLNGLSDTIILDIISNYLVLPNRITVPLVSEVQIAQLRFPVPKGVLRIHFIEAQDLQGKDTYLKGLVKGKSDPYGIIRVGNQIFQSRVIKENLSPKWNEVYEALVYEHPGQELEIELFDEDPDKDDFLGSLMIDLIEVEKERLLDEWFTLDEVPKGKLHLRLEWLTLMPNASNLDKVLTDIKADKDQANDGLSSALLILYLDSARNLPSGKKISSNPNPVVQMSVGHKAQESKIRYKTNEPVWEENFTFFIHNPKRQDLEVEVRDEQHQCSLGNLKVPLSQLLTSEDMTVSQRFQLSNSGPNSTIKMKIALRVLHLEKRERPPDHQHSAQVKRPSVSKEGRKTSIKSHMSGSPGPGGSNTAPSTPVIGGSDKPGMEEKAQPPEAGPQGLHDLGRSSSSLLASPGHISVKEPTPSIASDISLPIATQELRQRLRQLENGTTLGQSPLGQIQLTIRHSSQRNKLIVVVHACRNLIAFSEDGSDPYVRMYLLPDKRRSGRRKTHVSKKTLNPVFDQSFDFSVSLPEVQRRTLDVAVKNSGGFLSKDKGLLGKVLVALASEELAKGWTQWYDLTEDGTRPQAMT
The conditions noted are these: HeLa; protein FAM62B.

Assay [4] has as its target T4, HeLa cell extract proteins (Homo sapiens, UniProt P09669).
T4 construct: endogenous in cells; host or cells: HeLa cell extract
The conditions noted are these: captured protein COX6C; HeLa.

The target of assay [5] is T5, HeLa cell extract proteins (Homo sapiens, UniProt Q5XKP0).
T5 construct: endogenous in cells; host or cells: HeLa cell extract
T5 sequence (Q5XKP0 1-118): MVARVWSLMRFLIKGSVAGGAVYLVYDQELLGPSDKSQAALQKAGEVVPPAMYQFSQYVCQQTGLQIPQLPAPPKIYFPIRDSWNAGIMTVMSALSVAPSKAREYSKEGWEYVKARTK
Conditions: captured protein C19ORF70; HeLa.

For assay [6], the target named is T6, HeLa cell extract proteins (Homo sapiens, UniProt Q9Y316).
T6 construct: endogenous in cells; host or cells: HeLa cell extract
T6 sequence (Q9Y316 1-297): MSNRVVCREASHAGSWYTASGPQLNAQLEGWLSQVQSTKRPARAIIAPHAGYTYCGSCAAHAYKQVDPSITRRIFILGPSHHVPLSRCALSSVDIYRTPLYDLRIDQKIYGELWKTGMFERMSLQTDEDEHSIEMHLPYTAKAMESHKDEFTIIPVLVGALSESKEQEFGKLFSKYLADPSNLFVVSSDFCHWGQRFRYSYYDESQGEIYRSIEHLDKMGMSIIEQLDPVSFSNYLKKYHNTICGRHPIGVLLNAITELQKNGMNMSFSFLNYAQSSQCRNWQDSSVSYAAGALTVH
Conditions: HeLa; protein MEMO1.

Assay [7] has as its target T7, HeLa cell extract proteins (Homo sapiens, UniProt O00165).
T7 construct: endogenous in cells; host or cells: HeLa cell extract
The conditions noted are these: captured protein HAX1; HeLa.

In assay [8] the target is T8, HeLa cell extract proteins (Homo sapiens, UniProt O95347).
T8 construct: endogenous in cells; host or cells: HeLa cell extract
Conditions: protein SMC2; HeLa.

The target in assay [9] is T9, HeLa cell extract proteins (Homo sapiens, UniProt P43358).
T9 construct: endogenous in cells; host or cells: HeLa cell extract
T9 sequence (P43358 1-317): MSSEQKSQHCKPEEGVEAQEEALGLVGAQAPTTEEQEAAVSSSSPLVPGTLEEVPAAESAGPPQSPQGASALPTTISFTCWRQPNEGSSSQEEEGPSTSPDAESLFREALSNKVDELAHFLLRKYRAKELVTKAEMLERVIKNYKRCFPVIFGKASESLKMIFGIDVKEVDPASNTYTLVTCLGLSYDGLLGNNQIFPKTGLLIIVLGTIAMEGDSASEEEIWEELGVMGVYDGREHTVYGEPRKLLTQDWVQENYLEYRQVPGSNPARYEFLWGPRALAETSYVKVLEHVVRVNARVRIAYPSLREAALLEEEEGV
Conditions: protein MAGEA4; HeLa.

Assay [10] addresses T10, HeLa cell extract proteins (Homo sapiens, UniProt Q9UBQ5).
T10 construct: endogenous in cells; host or cells: HeLa cell extract

Assay [11] has as its target T11, HeLa cell extract proteins (Homo sapiens, UniProt Q16543).
T11 construct: endogenous in cells; host or cells: HeLa cell extract
T11 sequence (Q16543 1-378): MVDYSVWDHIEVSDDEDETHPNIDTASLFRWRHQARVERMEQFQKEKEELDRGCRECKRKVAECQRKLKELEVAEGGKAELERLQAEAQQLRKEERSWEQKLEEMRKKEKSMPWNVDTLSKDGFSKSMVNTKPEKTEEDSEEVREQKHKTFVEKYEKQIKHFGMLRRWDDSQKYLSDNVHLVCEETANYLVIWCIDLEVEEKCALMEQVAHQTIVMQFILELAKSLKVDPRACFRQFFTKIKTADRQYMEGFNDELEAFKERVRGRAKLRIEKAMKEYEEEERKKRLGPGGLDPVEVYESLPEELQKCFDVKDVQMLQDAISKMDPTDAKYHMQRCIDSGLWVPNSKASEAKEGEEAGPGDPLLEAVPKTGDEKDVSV

Like-named read-outs stand apart in the source and are kept apart here.

T1 sequence (Q13501 whole entry): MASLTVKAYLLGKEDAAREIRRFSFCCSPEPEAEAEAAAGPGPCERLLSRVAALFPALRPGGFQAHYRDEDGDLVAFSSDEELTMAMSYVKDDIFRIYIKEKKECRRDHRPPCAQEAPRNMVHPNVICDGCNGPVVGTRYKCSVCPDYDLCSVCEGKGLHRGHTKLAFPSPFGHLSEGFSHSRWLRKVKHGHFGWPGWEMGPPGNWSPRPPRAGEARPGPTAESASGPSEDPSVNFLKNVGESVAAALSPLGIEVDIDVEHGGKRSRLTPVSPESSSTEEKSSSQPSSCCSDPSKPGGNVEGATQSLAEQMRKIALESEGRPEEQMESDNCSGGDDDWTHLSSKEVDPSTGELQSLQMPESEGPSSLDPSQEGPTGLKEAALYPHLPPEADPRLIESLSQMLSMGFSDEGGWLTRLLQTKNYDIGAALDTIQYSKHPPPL
T8 sequence (O95347 whole entry): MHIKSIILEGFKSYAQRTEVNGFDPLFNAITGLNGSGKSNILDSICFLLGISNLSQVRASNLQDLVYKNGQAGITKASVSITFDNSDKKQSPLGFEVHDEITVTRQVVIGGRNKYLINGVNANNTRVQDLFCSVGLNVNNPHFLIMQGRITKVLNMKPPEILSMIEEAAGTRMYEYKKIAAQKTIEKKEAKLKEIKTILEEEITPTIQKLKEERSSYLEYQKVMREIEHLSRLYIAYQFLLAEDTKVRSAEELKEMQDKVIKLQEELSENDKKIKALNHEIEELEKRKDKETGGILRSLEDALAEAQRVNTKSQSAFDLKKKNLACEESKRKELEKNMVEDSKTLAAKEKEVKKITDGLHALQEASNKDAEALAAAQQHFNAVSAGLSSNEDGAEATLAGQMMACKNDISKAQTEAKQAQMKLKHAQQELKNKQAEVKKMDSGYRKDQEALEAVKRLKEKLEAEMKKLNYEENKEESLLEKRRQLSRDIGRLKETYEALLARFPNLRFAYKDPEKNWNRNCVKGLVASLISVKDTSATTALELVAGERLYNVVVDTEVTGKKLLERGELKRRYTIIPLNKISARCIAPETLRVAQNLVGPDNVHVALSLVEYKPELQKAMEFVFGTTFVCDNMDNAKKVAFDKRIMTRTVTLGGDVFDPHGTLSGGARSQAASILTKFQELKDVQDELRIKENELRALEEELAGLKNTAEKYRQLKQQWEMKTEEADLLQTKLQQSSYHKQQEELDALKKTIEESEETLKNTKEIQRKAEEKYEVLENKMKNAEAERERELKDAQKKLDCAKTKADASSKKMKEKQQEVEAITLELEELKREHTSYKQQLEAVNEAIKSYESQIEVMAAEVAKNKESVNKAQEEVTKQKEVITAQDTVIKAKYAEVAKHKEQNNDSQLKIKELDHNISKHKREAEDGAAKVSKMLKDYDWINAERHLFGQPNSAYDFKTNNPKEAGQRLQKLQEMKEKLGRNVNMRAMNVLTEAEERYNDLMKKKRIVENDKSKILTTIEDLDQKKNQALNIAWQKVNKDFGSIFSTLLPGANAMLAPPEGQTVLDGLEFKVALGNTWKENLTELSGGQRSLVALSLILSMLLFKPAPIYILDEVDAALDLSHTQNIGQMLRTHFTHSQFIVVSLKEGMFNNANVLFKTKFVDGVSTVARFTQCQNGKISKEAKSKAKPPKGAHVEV
T7 sequence (O00165 whole entry): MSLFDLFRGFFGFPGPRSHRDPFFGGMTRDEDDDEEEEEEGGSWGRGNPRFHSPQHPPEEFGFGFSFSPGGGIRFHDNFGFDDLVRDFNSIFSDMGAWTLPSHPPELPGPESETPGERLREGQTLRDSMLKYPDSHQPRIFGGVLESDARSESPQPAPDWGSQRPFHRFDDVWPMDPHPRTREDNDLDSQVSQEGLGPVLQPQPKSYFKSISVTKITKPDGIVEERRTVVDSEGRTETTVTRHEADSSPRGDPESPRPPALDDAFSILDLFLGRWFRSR
T10 sequence (Q9UBQ5 whole entry): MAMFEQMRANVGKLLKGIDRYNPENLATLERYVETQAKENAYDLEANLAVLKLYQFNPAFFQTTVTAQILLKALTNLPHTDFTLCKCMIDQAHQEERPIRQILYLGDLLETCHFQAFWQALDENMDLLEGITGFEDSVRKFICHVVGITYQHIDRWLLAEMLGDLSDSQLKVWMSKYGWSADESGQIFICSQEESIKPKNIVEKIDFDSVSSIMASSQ
T4 sequence (P09669 whole entry): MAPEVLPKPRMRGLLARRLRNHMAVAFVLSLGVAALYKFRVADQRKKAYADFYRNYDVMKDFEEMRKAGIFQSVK

Take `Nc1nc2cccc(-c3ccccc3)c2n1Cc1ccc(Cl)c(Cl)c1` [compound 3]: the “fold changes relative to vehicle control” value in assay [1] amounted to 1.2; in assay [2], 1.08; in assay [3], 0.96; in assay [4], 1.07; in assay [5], 1.13; in [6], 1. The “fold changes relative to vehicle control” value in assay [7] came out at 1.13; in assay [8], 1.11; in assay [9], 0.98.
For `NCCOCCOCC(=O)Nc1nc2ncc(CNc3ccc(C(=O)NC(CCC(=O)O)C(=O)O)cc3)nc2c(=O)[nH]1` (centres unmarked) [compound 6], the “fold changes relative to vehicle control” value in assay [10] (protein EIF3K, HeLa) is listed as 1.06; in [11] (protein CDC37, HeLa) it was 1.21.
Take `Nc1nc2[nH]cc(CCc3ccc(C(=O)N[C@@H](CCC(=O)O)C(=O)O)cc3)c2c(=O)[nH]1` [PTX, pemetrexed]: the figures for the “fold changes relative to vehicle control” value in [10] and in [11] were 0.97 and 1.1, respectively.
For `Nc1nc2c(c(=O)[nH]1)N(C=O)C(CNc1ccc(C(=O)N[C@@H](CCC(=O)O)C(=O)O)cc1)CN2` (some centres unmarked) [LEU, leucovorin], the “fold changes relative to vehicle control” value in assay [10] (protein EIF3K, HeLa) amounted to 0.94; in assay [11] (protein CDC37, HeLa) it was 1.13.
Consider `CCCCCCOc1ccc(Cc2cnc(N)nc2N)cc1` [compound 1], for which the “fold changes relative to vehicle control” value in assay [1] is on record as 1.3; in [2] it was 1.09; in [3], 0.82; in [4], 0.88; in [5], 1.16; in assay [6], 0.97. Besides, the “fold changes relative to vehicle control” value turned out to be 0.92 in assay [7], 1.4 in assay [8] and 0.95 in assay [9].
Turning to `NCCCNc1ccc(C(=O)NC(CCC(=O)O)C(=O)O)cc1` (centres unmarked) [compound 7], the “fold changes relative to vehicle control” value in [10] (protein EIF3K, HeLa) was determined as 1.1; in [11] (protein CDC37, HeLa), 1.14.
`CCCCCCOc1cccc(Cc2cnc(N)nc2N)c1` [compound 2]: the “fold changes relative to vehicle control” value in assay [1] turned out to be 0.96; in assay [2], 1.09; in assay [3], 1.29; in assay [4] it was 0.94; in assay [5] it was 1.14; in [6] it was 0.87. Also, the “fold changes relative to vehicle control” value in assay [7] was found to be 1.1; in [8], 1.36; in [9], 1.19.
